Several values for one entry are separate records, joined by “and”; a condition that tells them apart may be missing. Identical values can stand only once.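 Protocol summary: plate cells (96-well), add compound at 5 concentrations, incubate 48 h, interpolate endpoints linearly. Abbreviation: GI50, concentration required for 50% inhibition of growth. TGI marks complete inhibition of growth.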 Bounds are passed on as bounds.

Holding throughout (test): NCI tumour cell line growth inhibition, 48 h
The test system of test [1] is MCF7 breast.
Test [2] concerns HOP-92 NSCLC.
For test [3], the system named is HS 578T breast.
For test [4], the system named is A549 NSCLC.
Test [5] concerns BT-549 breast.
The test system of test [6] is HCT-15 colon.
Test [7] has as its system OVCAR-8 ovarian.
Test [8] concerns SK-MEL-28 melanoma.
Test [9] concerns SK-OV-3 ovarian.
Test [10] concerns HT29 colon.

On to `C=C1C(=O)O[C@H]2[C@H]1CC/C(COC(=O)C(=O)c1c[nH]c3ccc(OC)cc13)=C\CC[C@@]1(C)O[C@@H]21`, for which the GI50 was 3.69 µM in test [1]; 1.74 µM in test [2]; 10.1 µM in test [3]; 8.64 µM in test [4]; 1.82 µM in test [5]; 3.77 µM in test [6]. In addition, the GI50 in test [7] is 6.88 µM; in test [8] it was 5.05 µM; in [9] it was 19.8 µM; in test [10], 2.65 µM. Besides, the TGI in test [1] is 16.9 µM; in [2], 3.85 µM; in [3], 40.2 µM; in test [4], 17.3 µM; in test [5], 3.53 µM; in [6] it was 7.82 µM. Also, the TGI is 19.4 µM in test [7], 9.55 µM in [8], 35.1 µM in test [9] and 6.35 µM in test [10].

As for `O=C1C=CC(=O)C1(Br)Br`, the TGI worked out at 34.6 µM in test [1]; 40.9 µM in test [2]; 50.1 µM in [3]; 31.7 µM in [4]; 24.9 µM in test [5]; 17.3 µM in test [6]. In addition, the TGI in [7] was determined as 24.1 µM; in test [8] it was 21.8 µM; in [9], 43.2 µM; in test [10], 32.7 µM.

For `COc1cc2c3c(n(CCCN)c(=O)c2cc1OC)-c1ccc(F)cc1C3=O`, the GI50 was 0.618 µM in test [1]; 8.91 µM in test [2]; 6.49 µM in test [3]; 4.94 µM in test [4]; 3.81 µM in test [5]; 2.24 µM in test [6]. The GI50 in test [7] is 3.07 µM; in test [8], 12.6 µM; in test [9], 3.87 µM; in test [10] it was 1.03 µM. Further, the TGI in test [1] was found to be 7.25 µM; in [2], 42.9 µM; in [3], 13.6 µM; in test [4], 21.4 µM; in test [5] it was 14.4 µM; in test [6], 6.89 µM. Further, the TGI was 11.3 µM in [7], 26.9 µM in [8], 17.7 µM in [9] and 3.18 µM in [10].

Regarding `COc1c2ccccc2c(O)c2c(=O)c(C(=O)O)cn(C)c12`, the GI50 is above 100 µM in test [1]; 56.9 µM in [2]; above 100 µM in test [3]; above 100 µM in [4]; above 100 µM in test [5]; above 100 µM in [6]. For the same compound, the GI50 was above 100 µM in [7], 65 µM in test [8], above 100 µM in [9] and above 100 µM in test [10]. The TGI in test [1], in [2], in test [3], in [4], in test [5] and in test [6] was above 100 µM each time. Also, the TGI in [7], in test [8], in [9] and in test [10] was above 100 µM in each case.

On to `O=C(Oc1ccc([N+](=O)[O-])cc1)N1CCN(Cc2cccc(Oc3ccccc3)c2)CC1`, for which the GI50 is 37.1 µM in [1]; 18.2 µM in test [2]; above 100 µM in test [3]; above 73.6 µM in [4]; 52 µM in [5]; above 100 µM in test [6]. Also, the GI50 in [7] is above 100 µM; in test [8], above 100 µM; in test [9], above 100 µM; in [10], 40.6 µM. For the same compound, the TGI in test [1], in test [2], in [3], in [4], in [5] and in test [6] was above 100 µM each time. Moreover, the TGI in test [7], in [8], in test [9] and in [10] was above 100 µM throughout.

For the compound `CCC(=O)OC1CCn2c1nc1c2C(=O)C(C)=C(N2CC2)C1=O` (stereo not given), the TGI in test [1] was 0.0569 µM; in test [2] it was 7.99 µM and 6.33 µM; in [3], 0.78 µM; in test [5] it was 0.192 µM; in test [6], 0.209 µM and 0.0527 µM; in [7], 0.338 µM and 0.211 µM. Moreover, the TGI in test [8] is 0.318 µM and 0.215 µM; in [9], 0.255 µM and 0.283 µM; in test [10], 1.09 µM and 0.495 µM. For the same compound, the GI50 in [2] was 2.61 µM; in test [4], 0.0233 µM; in [6], 0.0204 µM; in [7] it was 0.0327 µM; in test [8], 0.0368 µM; in test [9] it was 0.0407 µM.

For the compound `O=C(O)CCC1COc2ccccc2O1` (stereo not given), the TGI in test [1], in [2], in test [3], in [4], in test [5] and in [6] was above 10 µM in each case. The TGI in test [7], in test [8], in test [9] and in test [10] was above 10 µM in each case.

For the compound `O=S(=O)(NC(=S)Nc1ccccc1)c1ccc(N2N=C3c4ccccc4CC3C2c2cccs2)cc1` (stereo not given), the GI50 in test [1] was 3.7 µM; in test [2], 24.9 µM; in test [3], 20.9 µM; in test [4], 15.7 µM; in [5] it was 24.6 µM; in [6], 22.6 µM. Moreover, the GI50 was 39 µM in test [7], 53.8 µM in test [8], 49.5 µM in [9] and 36.2 µM in test [10]. Also, the TGI in test [1] was above 100 µM; in test [2] it was 71.7 µM; in test [3], 68 µM; in test [4], above 100 µM; in test [5] it was 66.2 µM; in test [6], 63.5 µM. Besides, the TGI in test [7], in [8], in test [9] and in [10] was above 100 µM in each case.

For `O=c1cccc(C#Cc2ccccc2)o1`, the GI50 in [1] is 4.37 µM; in [2], 2.06 µM; in [3] it was 6.5 µM; in test [4], 11.1 µM; in test [5], 2.57 µM; in test [6], 6.9 µM. The GI50 in test [7] is above 22.8 µM; in test [8] it was 15 µM; in [9], 16.2 µM; in [10] it was 14.6 µM. For the same compound, the TGI in [1] was above 100 µM; in [2] it was 13.8 µM; in test [3], 25.9 µM; in test [4] it was above 90.9 µM; in test [5], 12.2 µM; in test [6], 23.6 µM. The TGI is above 100 µM in [7], 40.2 µM in test [8], above 44.8 µM in [9] and above 100 µM in test [10].

For `NCCNCC(O)CO` (stereo not given), the TGI in test [1], in test [2], in [3], in test [4], in test [5] and in test [6] was above 100 µM throughout. Further, the TGI in test [7], in [8], in test [9] and in test [10] was above 100 µM in each case.

Turning to `Nc1ccn([C@H]2C[C@@H](O)[C@@H](CO)S2)c(=O)n1`, the GI50 in test [1] is above 100 µM; in [2] it was above 100 µM; in [3], above 100 µM; in test [4], above 100 µM; in [5], above 100 µM; in test [6], 11.8 µM. The GI50 is 11.2 µM in test [7], above 100 µM in test [8], above 100 µM in test [9] and above 100 µM in [10]. Moreover, the TGI in [1], in test [2], in test [3], in test [4], in [5] and in [6] was above 100 µM throughout. In addition, the TGI in [7], in [8], in [9] and in test [10] was above 100 µM each time.

Consider `NC1=NC(c2ccccc2)N=C(Nc2ccccc2)N1` (stereo not given), for which the GI50 was 38.5 µM in [1]; above 100 µM in [2]; 68.5 µM in test [3]; above 100 µM in test [4]; above 100 µM in [5]; above 100 µM in [6]. In addition, the GI50 in test [7], in test [8], in [9] and in test [10] was above 100 µM each time. Moreover, the TGI in [1], in test [2], in test [3], in test [4], in test [5] and in [6] was above 100 µM each time. Besides, the TGI in test [7], in test [8], in test [9] and in test [10] was above 100 µM each time.

With `COc1cc2c3c(n(CCCN4CCN(C)CC4)c(=O)c2cc1OC)-c1cc2c(cc1C3=O)OCO2`, the GI50 is 8.82 µM in [1]; 19.8 µM in [2]; 13.9 µM in test [3]; 18.7 µM in test [4]; 80.8 µM in test [5]; 16 µM in test [6]. In addition, the GI50 in [7] is 18.1 µM; in test [8] it was 16.5 µM; in test [9] it was 12.3 µM; in test [10] it was 16.9 µM. Also, the TGI in test [1] was 64.8 µM; in [2], 46.9 µM; in test [3] it was 73 µM; in test [4], 84.2 µM; in test [5], above 100 µM; in test [6], 36.1 µM. Also, the TGI in test [7] was 46.5 µM; in test [8], 43.2 µM; in test [9], 34 µM; in test [10], above 100 µM.

In the case of `COc1ncc(-c2nc3c(n2C(C)C)[C@H](c2ccc(Cl)cc2)N(c2cc(Cl)cn(C)c2=O)C3=O)c(OC)n1`, the GI50 is 17.3 µM in test [1]; 3.28 µM in test [2]; 32.6 µM in test [3]; 17.9 µM in [4]; 36.7 µM in [5]; 34.5 µM in test [6]. Also, the GI50 in test [7] was 59.7 µM; in [8], 42.2 µM; in [9] it was 40.4 µM; in test [10], 41.7 µM. The TGI in test [1] is above 100 µM; in test [2], 52.6 µM; in [3], above 100 µM; in test [4], above 100 µM; in test [5], above 100 µM; in test [6], above 100 µM. For the same compound, the TGI in test [7], in test [8], in test [9] and in [10] was above 100 µM throughout.

`COC(=O)c1ccccc1NC(=O)C(=O)CC(=O)c1ccccc1NC1=CC(=O)C(=O)c2ccccc21`: the TGI in [1] was determined as 25.5 µM; in test [2], 32.5 µM; in [3], 37.2 µM; in test [4], 41 µM; in [5], 39.4 µM; in test [6], 34.1 µM. For the same compound, the TGI in test [7] is 60.9 µM; in [8] it was 29.4 µM; in [9] it was 96.1 µM; in test [10], above 74.9 µM.

For the compound `CN1CCN(c2ccc(-c3cnc4c(-c5csc6ccccc56)cnn4c3)cc2)CC1`, the GI50 in [1] was 2.58 µM; in [2] it was above 15 µM; in test [3], 10.9 µM; in test [4], 3.11 µM; in [5], 7.29 µM; in test [6], 3.65 µM. Further, the GI50 in test [7] is 5.7 µM; in test [8], above 15 µM; in test [9], above 15 µM; in test [10], 1.19 µM. For the same compound, the TGI was above 15 µM in test [1]; above 15 µM in test [2]; above 15 µM in test [3]; 11.4 µM in [4]; above 15 µM in test [5]; above 15 µM in test [6]. Also, the TGI in test [7], in test [8], in [9] and in test [10] was above 15 µM throughout.

These data come from PubChem BioAssay (NCI).
